Assay results: patent US10111431B2, “Application of biofilm formation inhibiting compounds enhances control of citrus canker” (priority 2013, dated 2018)
Like-named read-outs stand apart in the source and are kept apart here.

Key:
[1] = test system: biofilm formation and copper resistance related genes in Xac 306; experiment: qRT-PCR differential gene expression; assay type: cell-based, Xanthomonas citri subsp. citri; conditions: for expression of genes important for biofilm formation (qRT-PCR): IAN 100 μg/mL or D-leucine 10 mM, NB, 48 h, 15 genes, gyrA control; for expression of galU, gumB, gumD, copA and copB in planktonic or biofilm cells: in the presence of CuSO4, data not shown
Experimental: To investigate the mechanisms of D-leucine and IAN inhibiting Xac 306 biofilm formation, qRT-PCR analysis was used to determine differential gene expression for Xac306 cells with and without IAN (100 μg/mL) or D-leucine (10 mM). For this analysis, Xac306 was cultured in NB medium with or without biofilm inhibitor at 28° C. without shaking. Cells were collected after 48 h of incubation by centrifugation at 12,000×g for 5 min at 4° C. and used for RNA extraction. For the analysis of gene expression in Xac 306 planktonic and biofilm cells with sub-MICs CuSO4 concentrations, we followed the same procedure described for evaluation of resistance of Xac biofilm cells to copper in glass tubes. Both biofilm cells attached to the glass tube at the medium-air interface and planktonic cells in culture were used. Cells collected after 48 h of incubation in the presence of CuSO4 were washed by centrifugation at 12,000×g for 5 min at 4° C. with diethylpyrocarbonate treated water. Cells collected from five tubes were combined and served as one biological replicate. The pellet was stored at −80° C. until RNA extraction. Total RNA of Xac306 cells was isolated using RNA protect bacterial reagent (Qiagen, Valencia, Calif.) and RNeasy Mini Kit (Qiagen, Valencia, Calif.), following the manufacturer's instructions. The contaminated genomic DNA was removed using a TURBO DNA-free kit (Ambion, Austin, Tex.). RNA purity and quality were evaluated with a NanoDrop ND-1000 spectrophotometer (NanoDrop Technologies, Wilmington, Del.).
A one-step QRT-PCR was conducted using a 7500 fast real-time PCR system (Applied Biosystems, Foster City, Calif.) with a QuantiTect SYBR green RT-PCR kit (Qiagen, Valencia, Calif.) following the manufacturer's instructions. The gene specific primers (Table 1) were designed based on the genome sequence of Xac strain 306 (da Silver et al., 2002). In the biofilm inhibition mechanism studies, those primers targeted fifteen genes that were previously identified to be related bioflim formation in Xac strain 306 (Li and Wang, 2011). In the copper resistance analysis, those primers targeted the gum genes gumB and gumD polysaccharides—related gene galU, and copper resistance-related genes copA and copB (Teixeira et al., 2008; Behlau et al., 2012). The DNA gyrase subunit A encoding gene gyrA was used as endogenous control. The relative fold change in gene expression was calculated using the formula 2^−ΔΔCT (Livak and Schmittgen, 2001). qRT-PCR was repeated twice with four independent biological replicates each time.

[2] = test system: X. citri subsp. citri strain 306; experiment: Determination of minimum inhibitory concentrations (MICs) in NB medium, 96-well plate; assay type: cell-based, Xanthomonas citri subsp. citri; conditions: Xanthomonas citri, 48 h
Experimental: Xac strain 306 was grown in NB at 28° C. with shaking at 200 rpm for 7 h. The cultures were standardized to an OD600 of 0.03 (5×10^7 colony forming unit (CFU)/mL) in NB and then aliquoted into wells of a 96-well plate, 190 μL per well. The initial test concentrations of the compounds were diluted (1:20) in the culture (10 μl of compound in 190 μl of culture) and incubated at 28° C. under stationary conditions. The cultures were monitored at 24 and 48 h at OD600, and the lowest concentration resulting in no growth after 48 h compared to the control samples was defined as the MIC for Xac strain 306. All determinations were conducted in eight replicate wells and repeated three times.

Compound: CC(C)C[C@@H](N)C(=O)O [D-leucine]
- expression of genes important for biofilm formation (qRT-PCR) [1]: no induction or repression of any of the tested genes
- expression of galU, gumB, gumD, copA and copB in planktonic or biofilm cells [1]: did not affect express of any of the gene tested
- MIC [2]: 16 mM

Compound: N#CCc1c[nH]c2ccccc12 [IAN, 3-indolylacetonitrile]
- expression of genes important for biofilm formation (qRT-PCR) [1]: repression of chemotaxis and motility genes cheY, motB and pilB
- expression of galU, gumB, gumD, copA and copB in planktonic or biofilm cells [1]: did not affect express of any of the gene tested
- MIC ([2]; compound alone, NB medium, 28° C., stationary, OD600, read-out: MIC): 200 µg/mL
